Results taken from patent US8318947B2, “Comestible compositions comprising high potency savory flavorants, and processes for producing them” (Senomyx, Inc., priority 2006, dated 2012).

Columns and labels:
[1] = tested on: trained tasters; assay: Pizza sauce triangle difference taste test; assay type: in vivo, human
Description: For effective formulation in pizza sauce, a water soluble savory flavor concentrate formulation comprising 0.1% of Compound 1 was developed by dissolution in propylene glycol.
18221.7600 g of propylene glycol (supplied by Gold Coast, Inc.) was weighed out into a 2000 ml stainless steel cylinder, 18.2400 grams of Compound 1 was slowly added to 700.00 g of the propylene glycol using a Silverson Mill (model: L4RT) having a square hole high shear screen and set at 2000 rpm, until all of the dry 5807 (Compound 1) was added to the propylene glycol, the mill rpms was increased to 5,000-6,000 rpm's for 8-10 minutes. The remaining 17,521.76 g of propylene glycol was placed into a 10-gallon steam jacketed kettle equipped with a Lightnin Mixer utilizing a three blade impeller and heated to 50° C. (120° F.), then the milled solution was slowly added to the heated and agitated propylene glycol in the kettle. It took over 30 minutes of heating and mixing to completely solubilize Compound 1, then, the solution was allowed to cool to 80° F., then a Unispense Filler was used to fill sterilized 2 oz. glass containers with 62 grams of the liquid savory flavor, for storage. The water activity of the solution was 0.953@24.7° C., the refractive index was 1.4328, and the final concentration of this savory flavor was 0.10% of Compound 1.
Two pizza sauce samples, one comprising 0.4% of MSG and one containing no MSG, but comprising 1.1 ppm of Compound 1 were prepared using the ingredients listed in Tables 391 and 39-2 below, using the following procedure.
Salt, citric acid, sugar, the spices and herbs, including the MSG, were pre-blended as solids at 80-100 rpms in a 6 quart bowl and mixed using a KitchenAide blender for 5 minutes using a whip attachment. Water was placed in a clean kettle and stirred with a Lightnin mixer at 120-200 rpms to create a vortex. The savory flavor form of Compound 1, 0.10%, was slowly added to the water and mixed for five minutes. The vinegar and solid spice mixture was slowly added with the mixer still blending at 80-100 rpms until the dry seasonings were dissolved, approximately 5 minutes. The tomato paste was added and the slurry was mixed an additional 10. The resulting pizza sauce was transferred to a stainless steel six quart pot on a gas burner and was heated to pasteurizing temperature (175-190° F.) and held for a minimum of two minutes, cooled down to ambient (70+/−2° F.) temperature.
Ten trained tasters were trained to identify relative intensities of the following taste attributes: salty, savory/meaty, umami, brothiness, bitter, linger and off flavors. A triangle difference test determines if there is a sensory difference between two products. Three blinded, coded and randomized samples are presented to the panelist. Two samples are the same and one is different. To answer the test correctly, the panelist must taste all three samples and correctly pick out the sample they feel is different from the other two.
The samples were blind coded and presented in randomized order. The panelists each performed a total of two triangle tests, with 3 samples per test
a. Test 1: 2 samples with 1.1 ppm Compound 1; one sample with MSG.
b. Test 2: 2 samples with MSG; one sample with 1.1 ppm Compound 1.

[2] = tested on: human subjects, savory taste; assay: Human taste test of low sodium tomato juice; assay type: in vivo; conditions: 3 μM cpd; 400 mg Na/8 oz tomato juice
Description: Human taste tests were conducted in order to evaluate the ability of the compounds of the invention to enhance the savory flavor of low sodium tomato juice (which naturally comprises some monosodium glutamate).
The final tomato juice samples for taste testing were prepared so as to comprise 90% (by volume) pre-made low sodium tomato juice stock (pH 4.2, 80˜100 mg Na/8 oz, 16 mM of naturally occurring MSG), 5% (by volume) of stock solutions formulated to produce selected final levels of sodium of final juice, and 5% (by volume) of a stock solution of the compound of the invention. Selected oxalamide compounds of the invention were dissolved in LSB (low sodium phosphate buffer), to provide a stock solution at 20 times the desired final concentration in the final tomato juice. The desired final sodium concentration of the final tomato juice was most experiments 73.6 mM (400 mg sodium in 8 oz. of juice), therefore a stock solution of NaCl was made at 1.48 M NaCl. The pH for the stock solutions was adjusted to 4.2 using a 1 M citric acid solution, and the stock solutions were sonicated to ensure the additive compounds were completely dissolved. […]
Scores were averaged across panelists and sessions, and evaluated using a 2-way ANOVA (factors: panelists and samples) and Duncan's multiple comparison test (alpha=0.05) to determine significant differences in intensity ratings.

[3] = Test 1: 2 samples with 1.1 ppm Compound 1, one sample with MSG, 10 panelists
[4] = Test 2: 2 samples with MSG, one sample with 1.1 ppm Compound 1, 10 panelists

SMILES | Distinguishing pizza sauce with compound (no MSG) from pizza sauce with full loading of MSG ([1]; 1.1 ppm Compound 1 vs 0.4% MSG) | # Correct [1, 3] | # Incorrect [1, 3] | # Correct [1, 4] | # Incorrect [1, 4] | # Correct ([1]; Totals, n = 20) | # Incorrect ([1]; Totals, n = 20) | Enhancement of the savory taste of 16 mM glutamate (naturally existing) in low sodium tomato juice [2]
CCCC(CCC)NC(=O)c1ccc2c(c1)OCO2 [Example 1, N-(heptan-4-yl)benzo[d][1,3]dioxole-5-carboxamide] | could not distinguish between the sauces | 3 | 7 | 6 | 4 | 9 | 11 | 
COc1ccc(CNC(=O)C(=O)NCCc2ccccn2)c(OC)c1 [Example 24, N-(2,4-Dimethoxy-benzyl)-N′-(2-pyridin-2-yl-ethyl)-oxalamide] |  |  |  |  |  |  |  | by 1.4 to 1.5-fold
